Measured values: patent publication US20250009694A1, “METHODS AND PHARMACEUTICAL COMPOSITIONS FOR REPAIRING INTESTINAL MUCOSAL” (INSTITUT NATIONAL DE LA SANTÉ ET DE LA RECHERCHE MÉDICALE, priority 2021, published 2025)

Test system: DSS-colitis in WT mice
Assay: DSS-induced acute colitis in WT C57BL/6 mice after pre-treatment
Assay type: in vivo, mouse
Settings: CEA alone, Pan alone or coadministration

SMILES | influence on DSS-colitis, single or combined administration
CC(C)(CO)[C@@H](O)C(=O)NCCC(=O)O [Pan, 3-[(2R)-(2,4-Dihydroxy-3,3-dimethylbutanoyl)amino]propanoic acid] | delayed colitis development
NCCS [CEA, 2-aminoethanethiol] | poor influence
